Assay results published in patent US20220088024A1, “METHODS FOR TREATING CANCER USING TOZADENANT” (Biotie Therapies, Inc., priority 2018, published 2022).
Where “and” joins values, the source holds several entries; their conditions need not be identical. Equal entries are not always repeated.

Legend:
[1] = system: B16F10 Cherry melanoma metastases; assay: Example 10: number of lung tumor metastases in the B16F10 tumor mouse model; type: in vivo, C57/BL6 mice; conditions: 100 mg/kg once-daily oral gavage days 0 to 13, counted day 14, Batch 71236AA006
Protocol: The C57/BL6 mouse melanoma cell line B16F10 Cherry was cultured in DMEM supplemented with 10% FCS, GlutaMAX, and penicillin/streptomycin. Tumor cells are periodically verified to be Mycoplasma negative by the Victorian Infectious Diseases References Lab (Melbourne, VIC, Australia) by PCR analysis. 2×10^5 cells were resuspended in PBS and injected i.v. into C57/BL6 mice in a 200 μL volume. At day 14 lungs were excised and the number of metastases counted under the dissecting microscope. Mice were dosed with either SYN-115 (Batch 71236AA006) at 100 mg/kg or vehicle control once-daily via oral gavage on days 0 to 13. To calculate a dose of SYN-115 mouse weight was estimated to be 20 g per mouse. Therefore, 100 mg/kg=2 mg per mouse in 200 μL, which is equivalent to 10 mg/ml. To make up 40 mL, 400 milligrams of SYN-115 was weighed and added into a Falcon tube, then 1 mL of Tween 80 was added and mixed into a paste and then 39 mL of 1% Methyl Cellulose was added. Solution was vortexed and then left on a rotating mixer for at least 2 hours and maintained at 4° C.

[2] = system: CT26 colon carcinoma tumor; assay: Example 7: SYN-115 dose range as single agent in the CT26 tumor mouse model (tumor area, survival); type: in vivo, BALB/c mice; parameters: key: tumor area in mm^2 (width × length)
Protocol: The BALB/c mouse colon carcinoma cell line CT26 was cultured in RPMI supplemented with 10% FCS, GlutaMAX, and penicillin/streptomycin. Tumor cells are periodically verified to be Mycoplasma negative by the Victorian Infectious Diseases References Lab (Melbourne, VIC, Australia) by PCR analysis. 1×10^5 cells were resuspended in PBS and injected s.c. into BALB/c mice in a 100 μL volume. At day 7 tumors were measured and mice were randomized into distinct treatment groups to ensure that each group had tumors of similar size at the onset of treatment. Mice were treated with SYN-115 (Batch 71236AA006) at the indicated dose or vehicle control once-daily via oral gavage on days 7 to 20. To calculate a dose of SYN-115 mouse weight was estimated to be 20 g per mouse. Therefore, 100 mg/kg=2 mg per mouse in 200 μL, which is equivalent to 10 mg/ml. To make up 40 mL, 400 milligrams of SYN-115 was weighed and added into a Falcon tube, then 1 mL of Tween 80 was added and mixed into a paste and then 39 mL of 1% Methyl Cellulose was added. The solution was vortexed and then left on a rotating mixer for at least 2 hours and maintained at 4° C. Tumor measurements were taken 2-3 times per week. Tumor sizes were determined by width * length and mice were culled when tumors reached the ethical limit of 150 mm^2.

[3] = system: AT-3ova CD73+ tumour (mouse breast carcinoma cell line AT-3); assay: Example 1: anti-tumor responses of SYN-115 in the AT-3ova CD73+ tumour cell mouse model (tumor area); type: in vivo, C57/BL6 mice
Protocol: The C57BL/6 mouse breast carcinoma cell line AT-3 was obtained from Dr. Trina Stewart (Griffith University, Nathan, QLD, Australia. Tumor cell lines were transduced to express chicken ovalbumin peptide and CD73 as previously described (1, 2, 3). Tumor cells are periodically verified to be Mycoplasma negative by the Victorian Infectious Diseases References Lab (Melbourne, VIC, Australia) by PCR analysis. Tumor cells were grown in DMEM supplemented with 10% FCS, GlutaMAX, and penicillin/streptomycin. 5×10^5 cells were resuspended in PBS and injected s.c. into C57/BL6 mice in a 100 μL volume. At day 14 tumors were measured and mice were randomized into distinct treatment groups to ensure that each group had tumors of similar size at the onset of treatment. Mice were treated i.p. at days 14, 18, 22, and 26 with either isotype control (2A3; 200 μg/mouse) or anti-PD-1 mAb (RMP1-14, 200 μg/mouse) and where indicated SYN-115 (Batch 71236AA002) at the indicated dose or vehicle control once-daily via oral gavage on days 14 to 29. To calculate a dose of SYN-115, mouse weight was estimated to be 20 g per mouse. Therefore, 100 mg/kg=2 mg per mouse in 200 μL, which is equivalent to 10 mg/ml. […] Tumor sizes were determined by width * length and mice were culled when tumors reached the ethical limit of 150 mm^2.

In the case of `COc1ccc(N2CCOCC2)c2sc(NC(=O)N3CCC(C)(O)CC3)nc12` [SYN-115, 4-hydroxy-4-methyl-piperidine-1-carboxylic acid (4-methoxy-7-morpholin-4-yl-benzothiazol-2-yl)-amide], the “Number of Tumor Metastases (lung), individual mice” value ([1]; AC#009 Males) is reported as 0 (2×) and 9 and 5 and 16 and 13 and 1, the “Number of Tumor Metastases (lung), individual mice” value ([1]; AC#010 Females) is reported as 166 and 38 and 141 and 32 and 137 and 264 and 23 and 226 and the “Tumor area, individual mice” value ([2]; SYN-115 10 mg/kg, Day 0, 10 mg/kg) is reported as 4.86 and 6.44 and 7.56 and 8.37 and 8.84 and 11.2. For the same molecule, the “Tumor area, individual mice” value ([2]; SYN-115 10 mg/kg, Day 2, 10 mg/kg) was 6.16 and 6.75 and 7.36 and 15.2 and 9.45 and 14.06, the “Tumor area, individual mice” value ([2]; SYN-115 10 mg/kg, Day 4, 10 mg/kg) was 15.75 and 12.16 and 22.55 and 23.52 and 8.36 and 26.95 and the “Tumor area, individual mice” value ([2]; SYN-115 10 mg/kg, Day 7, 10 mg/kg) was 20.7 and 14.04 and 41.44 and 34.77 and 6.24 and 46.92. The “Tumor area, individual mice” value ([2]; SYN-115 10 mg/kg, Day 9, 10 mg/kg) was 30.53 and 22.09 and 52.08 and 50.37 and 0 and 66.99, the “Tumor area, individual mice” value ([2]; SYN-115 10 mg/kg, Day 11, 10 mg/kg) was 44.1 and 31.32 and 70.68 and 66.42 and 0 and 89.24 and the “Tumor area, individual mice” value ([2]; SYN-115 10 mg/kg, Day 14, 10 mg/kg) was 52.8 and 48.96 and 108.1 and 114.45 and 0 and 125.08. For the same molecule, the “Tumor area, individual mice” value ([2]; SYN-115 10 mg/kg, Day 16, 10 mg/kg) was 91.44 and 67.86 and 132.84 and 135.42 and 0 and 179.55, the “Tumor area, individual mice” value ([2]; SYN-115 10 mg/kg, Day 18, 10 mg/kg) was 136.71 and 100.98 and 202.5 and 119.88 and 0 and the “Tumor area, individual mice” value ([2]; SYN-115 10 mg/kg, Day 21, 10 mg/kg) was 175.74 and 162 and 160 and 0. For the same molecule, the “Tumor area, individual mice” value ([2]; SYN-115 10 mg/kg, Day 25) was 0, the “Tumor area, individual mice” value ([2]; SYN-115 10 mg/kg, Day 29) was 0 and the “Tumor area, individual mice” value ([2]; SYN-115 10 mg/kg, Day 32) was 0. For the same molecule, the “Tumor area, individual mice” value ([2]; SYN-115 10 mg/kg, Day 35) was 0, the “Tumor area, individual mice” value ([2]; SYN-115 10 mg/kg, Day 37) was 0 and the “Tumor area, individual mice” value ([2]; SYN-115 30 mg/kg, Day 0, 30 mg/kg) was 5 (2×) and 6.24 and 7.56 and 8.7 and 12.48. The “Tumor area, individual mice” value ([2]; SYN-115 30 mg/kg, Day 2, 30 mg/kg) was 12.6 (2×) and 8.12 and 9.28 and 12.95 and 8.4, the “Tumor area, individual mice” value ([2]; SYN-115 30 mg/kg, Day 4, 30 mg/kg) was 21.6 (2×) and 15.96 and 13.65 and 24.48 and 10.56 and the “Tumor area, individual mice” value ([2]; SYN-115 30 mg/kg, Day 7, 30 mg/kg) was 42.21 (2×) and 25 and 25.5 and 30.21 and 30.24. The “Tumor area, individual mice” value ([2]; SYN-115 30 mg/kg, Day 9, 30 mg/kg) was 50.16 (2×) and 35.4 and 29.68 and 47.61 and 31.9, the “Tumor area, individual mice” value ([2]; SYN-115 30 mg/kg, Day 18, 30 mg/kg) was 204.8 (2×) and 114 and 189.23 and 202.86 and 125.4 and the “Tumor area, individual mice” value ([2]; SYN-115 30 mg/kg, Day 21, 30 mg/kg) was 153.4 and 179.4. The “Raw Tumor Measurements” value ([2]; SYN-115 (1 mg/kg), Day 0, 1 mg/kg) was 5.25 and 6.72 and 8.37 and 7.84 and 9.6 and 10.36, the “Raw Tumor Measurements” value ([2]; SYN-115 (1 mg/kg), Day 2, 1 mg/kg) was 12.95 and 12.54 and 15.6 and 13.6 and 12.71 and 15.84 and the “Raw Tumor Measurements” value ([2]; SYN-115 (1 mg/kg), Day 4, 1 mg/kg) was 14.8 and 22.95 and 21 and 24.99 and 20.4 and 24.19. For the same molecule, the “Raw Tumor Measurements” value ([2]; SYN-115 (1 mg/kg), Day 16, 1 mg/kg) was 144.1 and 103.55 and 103.74 and 155.61, the “Raw Tumor Measurements” value ([2]; SYN-115 (1 mg/kg), Day 18, 1 mg/kg) was 208.68 and 167.24 and 138.6 and the “Raw Tumor Measurements” value ([2]; SYN-115 (1 mg/kg), Day 21) was 173.46. The “Raw Tumor Measurements” value ([2]; SYN-115 (5 mg/kg), Day 0, 5 mg/kg) was 4.8 and 7.8 and 7.54 and 8.84, the “Raw Tumor Measurements” value ([2]; SYN-115 (5 mg/kg), Day 2, 5 mg/kg) was 13.12 and 11.16 and 13.26 and 10.36 and the “Raw Tumor Measurements” value ([2]; SYN-115 (5 mg/kg), Day 4, 5 mg/kg) was 20.8 and 11.2 and 18.45 and 19.52. For the same molecule, the “Raw Tumor Measurements” value ([2]; SYN-115 (5 mg/kg), Day 25, 5 mg/kg) was 163.8 and 83.52, the “Raw Tumor Measurements” value ([2]; SYN-115 (5 mg/kg), Day 29) was 101.76 and the “Raw Tumor Measurements” value ([2]; SYN-115 (5 mg/kg), Day 32) was 124.74. For the same molecule, the “Raw Tumor Measurements” value ([2]; SYN-115 (5 mg/kg), Day 35) was 146.52, the “Raw Tumor Measurements” value ([2]; SYN-115 (5 mg/kg), Day 37) was 161.59 and the “Tumor size (width * length)” value ([3]; 2A3+SYN-115 (100 mg/kg), Day 6) was 23.5 mm^2 and 27.03 mm^2 and 30.74 mm^2 and 17.5 mm^2 and 33.6 mm^2. The “Tumor size (width * length)” value ([3]; Anti-PD-1 (200 ug)+SYN-115 (100 mg/kg), Day 0) was 13.76 mm^2 and 14 mm^2 and 17.2 mm^2 and 17.49 mm^2 and 26.22 mm^2 and 26.4 mm^2.
